Data: patent US8000781B2, “Method of evaluating effect of prolonging QT interval in electrocardiogram” (Eisai R&D Management Co., Ltd., priority 2005, dated 2011)
Where two headings read alike, the source gives them in different places.

Legend:
[1] = test system: hamster under mixed anesthesia with pentobarbital and xylazine; conditions: n=5; for Influence on the QRS interval / Influence on the RR interval: over the doses tested
[2] = test system: anesthetized dogs; conditions: calculated on the basis of the results of the cited report; cited from earlier work

Structure (SMILES) | Degree of prolongation of the QT interval ([1]; 100 μg/kg iv) | Influence on the PQ interval ([1]; iv, doses tested 1, 10 and 100 μg/kg) | Influence on the QRS interval ([1]; iv) | Influence on the RR interval ([1]; iv) | Single dose for intravenous administration providing 10% of prolongation of the duration of monophasic action potential [2] [mg/kg] | Degree of prolongation of the QT interval ([1]; 1 mg/kg iv)
COc1cc(N)c(Cl)cc1C(=O)NC1CCN(CCCOc2ccc(F)cc2)CC1OC (centres unmarked) [cisapride] | about 20% | did not significantly affect | did not significantly affect | did not significantly affect | 0.1 | –
CC(C)(C)c1ccc(C(O)CCCN2CCC(C(O)(c3ccccc3)c3ccccc3)CC2)cc1 (centres unmarked) [terfenadine] | – | – | did not significantly affect | did not significantly affect | – | about 20%
